According to patent US20070160684A1, “Methods for increasing cancer cell chemosensitivity” (priority 2005, published 2007):

Legend:
[1] = test system: HeLa and HeLa/HMGA2 cells; assay: MTT cell viability assay; assay type: cell-based; conditions: Dox 0-1 μM
Source text: HS578T, HCC1419, and CHO cells

Pa-4 cells [2] = assay: FACS cell cycle analysis (G2/M, sub-G1); assay type: cell-based
Method: (§1) Pa-4 and Pa-4/HMGA2 cells were seeded at 50-80% confluency in 35 mm dishes and serum starved overnight to synchronize cell cycle. Synchronized cells were treated with 1 μM Dox or vehicle for 24 hours, then fixed in 70% ethanol overnight and stained with 20 μg/ml propidium iodide. The percentage of cells in G1 versus G2/M was then determined by FACS analysis at the Norris Cancer Center Flow Cytometry Core Facility using FACSCaliber (Becton Dickinson, Franklin Lakes, N.J.).
(§2) Apoptosis of Pa-4 and Pa-4/HMGA2 cells was quantified by assessing the sub-G, cell population, a hallmark of cell apoptosis. The percentage of […] Pa-4/HMGA2 cells was increased five-fold 24 hours after Dox treatment, versus an increase of only two-fold in Pa-4 cells (FIG. 3A, panel e).

Pa-4/HMGA2 cells [3] = assay: FACS cell cycle analysis (G2/M, sub-G1); assay type: cell-based
Method: as §1, §2

topo IIα = assay: Western analysis of steady-state topo II levels in HS578T cells; assay type: cell-based; conditions: 1 μM Dox, various time points
Method: HS578T cells were treated with 1 μM Dox, and at various time points cell lysates were removed and subjected to Western analyses using monoclonal anti-topo IIα antibody (BD Biosciences, San Jose, Calif.). Control Western analyses were performed using monoclonal anti-actin antibodies.

[4] = test system: ATM Ser1981 phosphorylation; assay: Western analysis of ATM phosphorylation in pEBS7 and YZ5 cells; assay type: cell-based; conditions: 2 μM Dox
Method: ATM-deficient pEBS7 cells and ATM-proficient YZ5 cells were maintained in DMEM and 10% FBS with 100 μg/ml hygromycin at 37° C. with 5% CO2. pEBS7 and YZ5 are stable clones derived from ATM-deficient fibroblasts (AT22IJE-T) with empty vector and Flag-tagged wild-type ATM, respectively (Li 2000). Cells were treated with 2 μM Dox or vehicle only. At various time points after treatment, equal amounts of protein lysates were removed and subjected to Western analyses using monoclonal anti-phospho-ATM antibodies (Ser1981) (Upstate Cell Signaling, Waltham, Mass.).

[5] = test system: ATM-deficient pEBS7 cells and ATM-proficient YZ5 cells; assay: MTT cell viability assay; assay type: cell-based; conditions: Dox 0-1 μM
[6] = test system: ATM Ser1981 phosphorylation; assay: Western analysis of ATM phosphorylation in Pa-4 and Pa-4/HMGA2 cells; assay type: cell-based; conditions: 2 μM Dox
[7] = test system: H2AX Ser139 phosphorylation; assay: Western analysis of H2AX phosphorylation in Pa-4 and Pa-4/HMGA2 cells; assay type: cell-based; conditions: 1 μM Dox
Method: To ascertain whether HMGA2 effects Dox-induced ATM signaling activation, phosphorylation of ATM Ser1981 and H2AX Ser139 was assayed in the presence and absence of Dox (2 μM in ATM assays, 1 μM in H2AX assays). At various timepoints after Dox treatment, cell lysates were removed and subjected to Western analyses using monoclonal anti-phospho-ATM antibodies (Ser1981), polyclonal anti-ATM antibodies (Santa Cruz Biotechnology, Santa Cruz, Calif.), monoclonal anti-phospho-H2AX antibodies ([…]) (Upstate Cell Signaling), or anti-H2AX antibodies. Control Western analyses were performed using monoclonal anti-actin antibodies. […] HeLa and HeLa/HMGA2 cells
NU7026 (Calbiochem, San Diego, Calif.) was dissolved in DMSO at 5 mM and stored at −20° C. […] Cell lysates were removed and subjected to Western analyses using monoclonal anti-phospho-H2AX (Ser 139) antibodies. Control Western analyses were performed using monoclonal anti-actin antibodies.

Pa-4/HMGA2 cells [8] = assay: FACS analysis after caffeine and Dox (G2/M, sub-G1); assay type: cell-based; conditions: 4 mM caffeine or 1 μM Dox
Method: Pa-4 and Pa-4/HMGA2 cells were seeded at 50-80% confluency in 35 mm dishes and serum starved overnight to synchronize cell cycle. […] Following treatment, cells were fixed in 70% ethanol overnight, stained with 20 μg/ml propidium iodide, and subjected to FACS analysis.
Apoptosis was quantified by assessing sub-G1 cell populations.

H2AX phosphorylation = assay: Western analysis of H2AX phosphorylation in pEBS7, YZ5, and MO59J cells; assay type: cell-based; conditions: 2 μM Dox for 2 hours
Method: pEBS7, YZ5, and MO59J cells were treated with 2 μM Dox for 2 hours, at which point cell lysates were removed and subjected to Western analyses using anti-phospho-H2AX antibodies. Control Western analyses were performed using monoclonal anti-actin antibodies.

[9] = test system: Ku70-deficient MEF cells and their wild-type counterparts; assay: MTT cell viability assay; assay type: cell-based; conditions: increasing concentrations, 72 hours
Method: To confirm the involvement of DNA-PK in mediating HMGA2 chemosensitization to Dox-induced DNA damage, MTT assays were conducted as described above on Ku70-deficient (Ku70^−/^−) MEF cells and their wild-type counterparts and on DNA-PKcs-deficient MO59J cells and DNA-PKcs-proficient MO59K cells.

[10] = test system: pSer15-p53 and pThr68-Chk2; assay: Western analysis of p53 and Chk2 phosphorylation in parental and engineered HeLa cells; assay type: cell-based; conditions: Dox (2 μM), HeLa/HMGA2 and HeLa/HMGA2(2K/R) cells
Method: pSer15-p53 and pThr68-Chk2 profiles following exposure to Dox in parental and engineered HeLa cells were assessed. […] Intriguingly, there was a noticeable accumulation of pSer15-p53 at 6 hours post-treatment and attenuation of pThr68-Chk2 at 2 hours post-treatment in HeLa/HMGA2 cells, compared with Dox-treated HeLa and HeLa/HMGA2(2K/R) cells. Together with results set forth in Example 25, HMGA2 appears to disrupt DNA damage response by interfering with the activation of DNA-PKcs, ATM and Chk2.

caspase-3 and p53 = assay: Western analysis of caspase-3 cleavage and p53 levels; assay type: cell-based; conditions: Dox
[11] = test system: PUMA and NOXA transcriptional activation; assay: Quantitative real-time RT-PCR of PUMA and NOXA; assay type: cell-based; conditions: 2 μM Dox
Pa-4 cells [12] = conditions: 4 mM caffeine or 1 μM Dox
[13] = in a subject; cited from earlier work
[14] = 1 μM Dox for 24 hours, synchronized cells

COc1cccc2c1C(=O)c1c(O)c3c(c(O)c1C2=O)C[C@@](O)(C(=O)CO)C[C@@H]3O[C@H]1C[C@H](N)[C@H](O)[C@H](C)O1 [Dox, doxorubicin]
cell viability, HeLa/HMGA2 versus HeLa [1]: HMGA2 expression enhancing the chemosensitivity of cells to Dox | percentage of cells in G2/M phase (Pa-4 cells [2]; [14]): 50.9% | increase in apoptosis (sub-G1 cell population) (Pa-4 cells [2]; 24 hours after Dox treatment): two-fold | percentage of cells in G2/M phase (Pa-4/HMGA2 cells [3]; [14]): 62.6% | increase in apoptosis (sub-G1 cell population) (Pa-4/HMGA2 cells [3]; 24 hours after Dox treatment): five-fold | steady-state topo II levels (topo IIα): remained comparable over the time course of Dox treatment | ATM Ser1981 phosphorylation [4]: detected between 0.5 and 2 hours after Dox treatment | decrease in viability, pEBS7 versus YZ5 ([5]; 72 hours): less pronounced in the ATM-negative pEBS7 cells | cell viability ([5]; 72 hours after treatment): decreased cell viability in both cell types in a dose-dependent manner | ATM phosphorylation, Pa-4 versus Pa-4/HMGA2 [6]: roughly equal in Pa-4 and Pa-4/HMGA2 cells | ATM phosphorylation ([6]; Pa-4 cells): rapid phosphorylation of ATM | induction of H2AX phosphorylation ([7]; Pa-4/HMGA2 cells): ablation of Dox-mediated induction of H2AX phosphorylation | H2AX phosphorylation ([7]; Pa-4 cells): rapid phosphorylation | apoptosis (sub-G1 cell population), single agent (Pa-4/HMGA2 cells [8]): substantially larger increase in Pa-4/HMGA2 cells | cell cycle distribution / cells in G2/M, single agent (Pa-4/HMGA2 cells [8]; 48 hours): greatly increased the number of cells in G2/M phase | induction of H2AX phosphorylation (H2AX phosphorylation; YZ5 cells and MO59J cells): substantial increase in H2AX phosphorylation following Dox treatment | induction of H2AX phosphorylation (H2AX phosphorylation; pEBS7 cells): lack of Dox-mediated induction | viability, Ku70-deficient versus wild type [9]: marked decrease in viability | pSer15-p53 and pThr68-Chk2 signals [10]: caused induction of pSer15-p53 and pThr68-Chk2 signals | caspase-3 cleavage fragment (caspase-3 and p53): increased in HeLa/HMGA2, HepG2 and Hs578T cells | steady-state p53 levels (caspase-3 and p53; HeLa, HeLa/HMGA2, CL48, and HepG2 cells): increased steady-state p53 levels | transcriptional activation of PUMA and NOXA ([11]; CL48 and HepG2 cells): marked transcriptional activation of PUMA and NOXA at 8 hours after treatment | transcriptional activation of PUMA and NOXA ([11]; Hep3B cells and HeLa cells): modest induction if any | apoptosis (sub-G1 cell population), single agent (Pa-4 cells [12]): increase in apoptosis | cell cycle distribution / cells in G2/M, single agent (Pa-4 cells [12]; 48 hours): greatly increased the number of cells in G2/M phase | maximum cumulative dosage limited by side effects [13]: 450 to 550 mg
